The record followed here is patent US11510952B2, “Ethanol extraction of psychoactive compounds from psilocybin fungus” (PSILO SCIENTIFIC LTD, priority 2020, dated 2022).

A short description of data set [1]: Solubility of psilocybin and psilocin in solvents. It is filed as physicochemical. The protocol:
Psilocybin and psilocin are soluble in methanol and water and are not soluble in isopropanol, ethanol and acetone. Experiments were performed to determine the best solvent compositions for extraction (FIGS. 32B and 32C; Table 7)

The nature of data set [2]: pH stability of purified psilocybin / psilocin over time under aqueous conditions. Type of data set: physicochemical. As to conditions: aqueous solutions across the pH spectrum. The source says: The dephosphorylated indole alkaloids are well known to be unstable. Internal experiments have also quantified and substantiated these findings under aqueous conditions across the pH spectrum (Tables 5 and 6).

Turning to `CN(C)CCc1c[nH]c2cccc(OP(=O)(O)O)c12` [Psilocybin], in data set [1], the solubility in acetone result is “not soluble”, the solubility in ethanol entry is listed as “not soluble”, the solubility in isopropanol result is given as “not soluble” and the solubility in methanol entry is “soluble”. In addition, the solubility in water entry in data set [1] was “soluble”.
Regarding `CN(C)CCc1c[nH]c2cccc(O)c12` [Psilocin], in data set [1], the solubility in acetone entry is “not soluble”, the solubility in ethanol entry is reported as “not soluble”, the solubility in isopropanol result is “not soluble” and the solubility in methanol entry was “soluble”. In addition, the solubility in water entry in data set [1] is “soluble”. Further, the “maximum stability pH” value in data set [2] is 4 pH.
